According to patent US10259810B2, “N-sulfonylated pyrazolo[3,4-b]pyridin-6-carboxamides and method of use” (AbbVie S.à.r.l., priority 2015, dated 2019):

Assays:
ΔF508-CFTR [1] = target: T1, ΔF508-CFTR (Homo sapiens, UniProt P13569, DEL508-508); test: CFTR cell surface levels using HRP-tagged ΔF508-CFTR expressing CFBE cells, intrinsic corrector capacity; format: cell-based; design: % Activation: concentration or dose not given beside the values; conditions: HRP-tagged ΔF508-CFTR expressing CFBE41o- cells, compound alone (intrinsic corrector capacity), 20 hours at 33° C.; for EC50: read-out: EC50
T1 construct: host or cells: CFBE41o-, doxycycline-inducible
T1 sequence (P13569 with tags, fused parts or gaps DEL508-508): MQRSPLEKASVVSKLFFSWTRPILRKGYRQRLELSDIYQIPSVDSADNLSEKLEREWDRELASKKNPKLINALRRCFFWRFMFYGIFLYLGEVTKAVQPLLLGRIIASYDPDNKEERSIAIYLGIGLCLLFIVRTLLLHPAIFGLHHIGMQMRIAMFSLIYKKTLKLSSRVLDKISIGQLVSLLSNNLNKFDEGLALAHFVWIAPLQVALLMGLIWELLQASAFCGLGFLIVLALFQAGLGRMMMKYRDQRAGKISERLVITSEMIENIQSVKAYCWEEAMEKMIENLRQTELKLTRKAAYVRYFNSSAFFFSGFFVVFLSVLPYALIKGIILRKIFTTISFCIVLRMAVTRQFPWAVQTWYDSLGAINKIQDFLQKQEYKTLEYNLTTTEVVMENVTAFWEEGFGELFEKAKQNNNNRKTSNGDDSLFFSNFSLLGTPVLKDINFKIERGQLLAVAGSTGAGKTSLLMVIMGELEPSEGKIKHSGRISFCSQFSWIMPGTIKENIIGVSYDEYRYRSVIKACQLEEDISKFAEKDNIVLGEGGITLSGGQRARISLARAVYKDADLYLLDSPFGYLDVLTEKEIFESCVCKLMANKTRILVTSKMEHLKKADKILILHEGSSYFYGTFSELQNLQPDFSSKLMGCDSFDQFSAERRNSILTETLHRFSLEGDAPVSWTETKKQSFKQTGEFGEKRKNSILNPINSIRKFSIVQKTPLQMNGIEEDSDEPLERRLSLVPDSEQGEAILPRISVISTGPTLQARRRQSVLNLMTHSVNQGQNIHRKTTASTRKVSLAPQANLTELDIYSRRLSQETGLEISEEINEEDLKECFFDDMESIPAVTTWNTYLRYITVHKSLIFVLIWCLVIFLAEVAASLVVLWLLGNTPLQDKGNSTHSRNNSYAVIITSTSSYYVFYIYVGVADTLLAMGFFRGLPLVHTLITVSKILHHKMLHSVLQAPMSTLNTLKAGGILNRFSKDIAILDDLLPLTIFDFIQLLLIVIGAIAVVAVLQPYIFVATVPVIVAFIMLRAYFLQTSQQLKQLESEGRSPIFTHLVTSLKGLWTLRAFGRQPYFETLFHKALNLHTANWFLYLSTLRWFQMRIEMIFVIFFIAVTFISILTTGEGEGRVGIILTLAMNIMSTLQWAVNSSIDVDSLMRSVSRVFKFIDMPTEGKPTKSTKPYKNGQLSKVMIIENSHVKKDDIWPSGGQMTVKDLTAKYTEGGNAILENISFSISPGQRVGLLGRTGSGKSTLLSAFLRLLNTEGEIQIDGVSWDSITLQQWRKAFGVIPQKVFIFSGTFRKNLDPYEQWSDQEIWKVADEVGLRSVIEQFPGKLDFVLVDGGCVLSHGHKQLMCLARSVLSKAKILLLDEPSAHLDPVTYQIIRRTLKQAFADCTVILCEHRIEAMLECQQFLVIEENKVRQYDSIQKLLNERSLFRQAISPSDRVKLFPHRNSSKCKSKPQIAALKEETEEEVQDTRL
Description: (§1) Measuring CFTR Cell Surface Levels Using HRP-Tagged ΔF508-CFTR Expressing CFBE Cells
(§2) The HRP-tagged ΔF508-CFTR cell assay measures the expression of CFTR-ΔF508 at the plasma membrane. CFTR-ΔF508 has a folding defect leading to absence of protein at the plasma membrane. This assay is used to evaluate the capacity of compounds to increase the expression of CFTR-ΔF508 at the plasma membrane. The CFTR-ΔF508 is tagged with HRP (horse radish peroxidase enzyme) within the ECL4 (Extracellular loop 4) of CFTR (Phuan, P.-W. et al. Synergy-based small-molecule screen using a human lung epithelial cell line yields ΔF508-CFTR correctors that augment VX-809 maximal efficacy. Mol. Pharmacol. 86, 42-51 (2014)). When HRP-tagged ΔF508-CFTR is present at the plasma membrane, the HRP enzyme activity can be measured. The amount of CFTR-ΔF508 that can be rescued to the plasma membrane is correlated with the amount of functional enzyme that can be measured.
(§3) There are several ways to measure the capacity of compounds to rescue CFTR-ΔF508 to the plasma membrane; either compounds are evaluated on their own and the impact on plasma membrane levels is measured or compounds are evaluated in combination with a co-corrector, i.e. a compound that rescues CFTR-ΔF508 to the plasma membrane but rescue can be enhanced by addition of compounds due to a complementary mode of action.
Activity of Compounds for their Intrinsic Corrector Capacity:
For this purpose doxycycline-inducible ΔF508-CFTR-HRP expressing CFBE4lo− cells (obtained from Gergely Lukacs, McGill University) were maintained in MEM (Gibco; 31095) supplemented with 10% fetal bovine serum (Hyclone; SV30160.03) under puromycin (3 μg/mL) and G418 selection (0.2 mg/mL). For compound testing, cells were seeded at 4000 cells/well in white 384-well plates (Greiner; 781080) in 50 μL medium containing 0.5 μg/mL doxycycline and incubated for 68 hours at 37° C., 5% CO2. On day four, […] compounds diluted in PBS were added to the plates at a final DMSO concentration of 0.1%. All compound plates contained negative controls (DMSO) and positive controls ([…] corrector, 3-[(2R,4R)-4-({[1-(2,2-difluoro-1,3-benzodioxol-5-yl)cyclopropyl]carbonyl}amino)-7-methoxy-3,4-dihydro-2H-chromen-2-yl]benzoic acid). Cell plates were incubated at 33° C., 5% CO2 for 20 hours. On day five, the cells were washed five times with phosphate-buffered saline, and HRP activity was assayed by the addition of 50 μL/well of HRP substrate (SuperSignal™ West Pico Chemiluminescent Substrate, Thermo Scientific; 34080). After incubation for 15 minutes in the dark, chemiluminescence was measured using a plate reader (EnVision®, Perkin Elmer). Raw data were normalized to percentage activity values using the equation: 100×(Sample−Negative control)/(Positive control−Negative Control).

ΔF508-CFTR [2] = target: T1, ΔF508-CFTR; test: CFTR cell surface levels using HRP-tagged ΔF508-CFTR expressing CFBE cells, in the presence of a co-corrector; format: cell-based; conditions: HRP-tagged ΔF508-CFTR CFBE cells, in the presence of 3 μM co-corrector; for EC50: read-out: EC50
Description: as §1, §2, §3
Activity of Compounds in Combination with Co-Corrector:
For this purpose doxycycline-inducible ΔF508-CFTR-HRP expressing CFBE4lo− cells (obtained from Gergely Lukacs, McGill University) were maintained in MEM (Minimum Essential Medium, Gibco; 31095) supplemented with 10% fetal bovine serum (Hyclone; SV30160.03) under puromycin (3 μg/mL) and G418 selection (0.2 mg/mL). For compound testing, cells were seeded at 4000 cells/well in white 384-well plates (Greiner; 781080) in 50 μL of medium containing 0.5 μg/mL doxycycline and incubated for 68 hours at 37° C., 5% CO2. On day four, 10 μL of test compounds diluted in PBS (phosphate buffered saline) were added to the plates at a final DMSO concentration of 0.1%. In order to measure compound synergy with a co-corrector, 3 μM co-corrector (3-[(2R,4R)-4-({[1-(2,2-difluoro-1,3-benzodioxol-5-yl)cyclopropyl]carbonyl}amino)-7-methoxy-3,4-dihydro-2H-chromen-2-yl]benzoic acid) was added along with test compounds. All compound plates contained negative controls (DMSO) and positive controls (3 μM co-corrector). Cell plates were incubated at 33° C., 5% CO2 for 20 hours. On day five, the cells were washed five times with phosphate-buffered saline, and HRP activity was assayed by the addition of 50 μL/well of HRP substrate (SuperSignal™ West Pico Chemiluminescent Substrate, Thermo Scientific; 34080). After incubation for 15 minutes in the dark, the chemiluminescence was measured using a plate reader (EnVision®, Perkin Elmer). Raw data were normalized to percentage activity values using the equation: 100×(Sample−Negative control)/(Positive control−Negative Control).

Structure (SMILES)	% Activation (ΔF508-CFTR [1]) [%]	EC50 (ΔF508-CFTR [1]) [nM]	% Activation (ΔF508-CFTR [2]) [%]	EC50 (ΔF508-CFTR [2]) [nM]
CCOC(=O)N1CCN(c2cc(C(=O)NS(C)(=O)=O)nc3c2c(C2CCC2)nn3-c2ccc(F)cc2)CC1 [Compound 679, ethyl 4-{3-cyclobutyl-1-(4-fluorophenyl)-6-[(methanesulfonyl)carbamoyl]-1H-pyrazolo[3,4-b]pyridin-4-yl}piperazine-1-carboxylate]	476.9	132		
COCC1CCN(c2cc(C(=O)NS(=O)(=O)NC3COC3)nc3c2c(C2CCC2)nn3-c2ccc(F)cc2)CC1 [Compound 674, 3-cyclobutyl-1-(4-fluorophenyl)-4-[4-(methoxymethyl)piperidin-1-yl]-N-[(oxetan-3-yl)sulfamoyl]-1H-pyrazolo[3,4-b]pyridine-6-carboxamide]	389.5	156		
CCOC(=O)N1CCN(c2cc(C(=O)NS(=O)(=O)NC)nc3c2c(C2CCC2)nn3-c2ccc(F)cc2)CC1 [Compound 680, ethyl 4-{3-cyclobutyl-1-(4-fluorophenyl)-6-[(methylsulfamoyl)carbamoyl]-1H-pyrazolo[3,4-b]pyridin-4-yl}piperazine-1-carboxylate]	351.2	339		
COCCS(=O)(=O)NC(=O)c1cc(N2CCN(C(=O)OCC(C)C)CC2)c2c(C3CCC3)nn(-c3ccc(F)cc3)c2n1 [Compound 683, 2-methylpropyl 4-{3-cyclobutyl-1-(4-fluorophenyl)-6-[(2-methoxyethanesulfonyl)carbamoyl]-1H-pyrazolo[3,4-b]pyridin-4-yl}piperazine-1-carboxylate]	354.9	253		
O=C(NS(=O)(=O)C1CC1)c1cc(OCC2CCOCC2)c2c(C3CCC3)nn(-c3ccccc3)c2n1 [Compound 333, 3-cyclobutyl-N-(cyclopropanesulfonyl)-4-[(oxan-4-yl)methoxy]-1-phenyl-1H-pyrazolo[3,4-b]pyridine-6-carboxamide]	180	82.8		
COCC1CCN(c2cc(C(=O)NS(=O)(=O)N3CCC(N4CCOCC4)CC3)nc3c2c(C2CCC2)nn3-c2ccc(F)cc2)CC1 [Compound 676, 3-cyclobutyl-1-(4-fluorophenyl)-4-[4-(methoxymethyl)piperidin-1-yl]-N-[4-(morpholin-4-yl)piperidine-1-sulfonyl]-1H-pyrazolo[3,4-b]pyridine-6-carboxamide]	251.1	251		
CCS(=O)(=O)NC(=O)c1cc(OCC2CCOCC2)c2c(C3CCC3)nn(-c3ccccc3)c2n1 [Compound 335, 3-cyclobutyl-N-(ethanesulfonyl)-4-[(oxan-4-yl)methoxy]-1-phenyl-1H-pyrazolo[3,4-b]pyridine-6-carboxamide]	171.65	150		
COCC1CCN(c2cc(C(=O)NS(=O)(=O)NC3CCOCC3)nc3c2c(C2CCC2)nn3-c2ccc(F)cc2)CC1 [Compound 675, 3-cyclobutyl-1-(4-fluorophenyl)-4-[4-(methoxymethyl)piperidin-1-yl]-N-[(oxan-4-yl)sulfamoyl]-1H-pyrazolo[3,4-b]pyridine-6-carboxamide]	398.1	316		
C#CCCS(=O)(=O)NC(=O)c1cc(-c2ccc(N=[N+]=[N-])cc2)c2c(C(C)C)nn(-c3cccc(N(C)C)c3)c2n1 [Compound 363, 4-(4-azidophenyl)-N-(but-3-yne-1-sulfonyl)-1-[3-(dimethylamino)phenyl]-3-(propan-2-yl)-1H-pyrazolo[3,4-b]pyridine-6-carboxamide]			415.8	116
COCC1(F)CCN(c2cc(C(=O)NS(C)(=O)=O)nc3c2c(C(C)C)nn3-c2ccc(F)cc2)CC1 [Compound 345, 4-[4-fluoro-4-(methoxymethyl)piperidin-1-yl]-1-(4-fluorophenyl)-N-(methanesulfonyl)-3-(propan-2-yl)-1H-pyrazolo[3,4-b]pyridine-6-carboxamide]			301.1	223
